Values quoted from earlier work, collected in US20070065513A1, “Stable lansoprazole formulation” (priority 2003, published 2007).
Read-outs that look alike come from different tables or passages of the source.

In the case of COc1ccc2[nH]c([S+]([O-])Cc3ncc(C)c(OC)c3C)nc2c1 (stereo not drawn) [Omeprazole, 5methoxy-2(((4-methoxy-3,5-dimethyl-2-pyridinyl)methyl)sulfinyl)-1H-benzimidazole], the half life (pH 6.5) is given as 18 h, the half life (pH 11) is given as “about 300 days” and the half-life of degradation (pH values below 4.0) is given as “less than 10 minutes”.
